Data from patent US20170057958A1, “ENANTIOMERS OF THE N-(2-AMINO-5-FLUORO-2-METHYLPENTYL)-8-[(2,6-DIFLUOROBENZYL)OXY]-2-METHYLIMIDAZO[1,2-A]PYRIDINE-3-CARBOXAMIDE, AS WELL AS OF THE DI- AND TRIFLUORO DERIVATIVES FOR THE TREATMENT OF CARDIOVASCULAR DISEASES” (BAYER PHARMA AKTIENGESELLSCHAFT, priority 2014, published 2017).

System: recombinant guanylate cyclase reporter cell line
Experiment: Effect on a recombinant guanylate cyclase reporter cell line
Assay type: cell-based
Conditions: in some cases mean values for individual determinations
Method: B-2. Effect on a Recombinant Guanylate Cyclase Reporter Cell Line
The cellular activity of the compounds according to the invention is determined using a recombinant guanylate cyclase reporter cell line, as described in F. Wunder et al., Anal. Biochem. 339, 104-112 (2005).
Representative MEC values (MEC=minimum effective concentration) for the compounds of the invention are shown in the table below (in some cases as mean values for individual determinations): […]

Compound	MEC (minimum effective concentration)
Cc1nc2c(OCc3c(F)cccc3F)cccn2c1C(=O)NCC(C)(N)CCCF (single isomer, unassigned; enantiomer a) [Example 1, ent-N-(2-amino-5-fluoro-2-methylpentyl)-8-[(2,6-difluorobenzyl)oxy]-2-methylimidazo[1,2-a]pyridine-3-carboxamide (enantiomer A)]	0.3 µM
Cc1nc2c(OCc3c(F)cccc3F)cccn2c1C(=O)NCC(C)(N)CC(F)F (single isomer, unassigned; enantiomer a) [Example 3, ent-N-(2-amino-4,4-difluoro-2-methylbutyl)-8-[(2,6-difluorobenzyl)oxy]-2-methylimidazo[1,2-a]pyridine-3-carboxamide (enantiomer A)]	0.3 µM
Cc1nc2c(OCc3c(F)cccc3F)cccn2c1C(=O)NCC(C)(N)CCC(F)(F)F (single isomer, unassigned; enantiomer a) [Example 5, ent-N-(2-amino-5,5,5-trifluoro-2-methylpentyl)-8-[(2,6-difluorobenzyl)oxy]-2-methylimidazo[1,2-a]pyridine-3-carboxamide (enantiomer A)]	0.1 µM
Cc1nc2c(OCc3c(F)cccc3F)cccn2c1C(=O)NCC(C)(N)CCCF (single isomer, unassigned; enantiomer b) [Example 2, ent-N-(2-amino-5-fluoro-2-methylpentyl)-8-[(2,6-difluorobenzyl)oxy]-2-methylimidazo[1,2-a]pyridine-3-carboxamide (enantiomer B)]	0.3 µM
Cc1nc2c(OCc3c(F)cccc3F)cccn2c1C(=O)NCC(C)(N)CC(F)F (single isomer, unassigned; enantiomer b) [Example 4, ent-N-(2-amino-4,4-difluoro-2-methylbutyl)-8-[(2,6-difluorobenzyl)oxy]-2-methylimidazo[1,2-a]pyridine-3-carboxamide (enantiomer B)]	0.3 µM
Cc1nc2c(OCc3c(F)cccc3F)cccn2c1C(=O)NCC(C)(N)CCC(F)(F)F (single isomer, unassigned; enantiomer b) [Example 6, ent-N-(2-amino-5,5,5-trifluoro-2-methylpentyl)-8-[(2,6-difluorobenzyl)oxy]-2-methylimidazo[1,2-a]pyridine-3-carboxamide (enantiomer B)]	0.03 µM
Cc1nc2c(OCc3c(F)ccc(F)c3F)cccn2c1C(=O)NCC(C)(N)CCC(F)(F)F (single isomer, unassigned; enantiomer b) [Example 7, ent-N-(2-amino-5,5,5-trifluoro-2-methylpentyl)-2-methyl-8-[(2,3,6-trifluorobenzyl)oxy]imidazo[1,2-a]pyridine-3-carboxamide (enantiomer B)]	0.09 µM
